Laboratory results published in patent US7205298B2, “Substituted triazine kinase inhibitors” (Janssen Pharmaceutica N.V., priority 2002, dated 2007).

What was measured:
[1] = target: T1, VEGF-R (rat VEGF-R2 kinase domain) (Rattus norvegicus, UniProt O08775); test: VEGF-R Screening Assay; assay type: biochemical
T1 construct: 6xHis (polyhistidine) (N)
Method: A kinase reaction mixture was prepared containing 50 mM Tris-HCl pH=8, 10 mM MgCl2, 0.1 mM Na3PO4, 1 mM DTT, 10 μM ATP, 0.025 μM biotinylated peptide substrate (also referred to herein as PLC-1 biotinylated peptide substrate and PDGF receptor substrate, sequence provided in the peptide substrate table) and 0.8 μCuries per well ^33P-γ-ATP (2000–3000 Ci/mmol). 70 μL of the kinase reaction mixture was dispensed into the well of a streptavidin coated FlashPlate™ (Cat. # SMP103, NEN, Boston, Mass.). Then 1 μL of test compound stock in 100% DMSO was added to the wells resulting in a final concentration of 1% DMSO in the reaction with a 100 μL final reaction volume. Next, soluble rat VEGF tyrosine kinase containing an N-terminal 6XHIS tag was diluted in 50 mM Tris-HCl pH=8.0, 0.1% BSA at a concentration of 5 ng per μL and 30 μL (150 ng enzyme per test well) was added to each well to initiate the reaction. The reaction was incubated for one hour at 30° C. At the end of the 1-hour incubation, the reaction was terminated by aspirating the reaction mixture from the plate and washing the wells twice with PBS containing 100 mM EDTA. The PLC1 biotinylated peptide substrate became immobilized on the Flashplate™ and the incorporation of ^33P-γ-ATP was measured by reading the plate on a scintillation counter. Inhibition of the enzymatic activity of the VEGF-R was measured by observing a reduced amount of ^33P-γ-ATP incorporated into the immobilized peptide.
(§1) Assays to test compound inhibition of other kinases were preformed using methods that measure the amount of phosphorylation of a biotinylated peptide substrate. Biotinylated peptide substrates were selected from the literature as appropriate for the enzyme being evaluated. The general procedure used to assay for kinase activity is as follows: a kinase reaction mix was prepared in 50 mM Tris-HCl pH=8, 10 mM MgCl2, 0.1 mM Na3VO4, 1 mM DTT, 10 μM ATP, 0.25–1 μM biotinylated peptide substrate, 0.2–0.8 μCuries per well ^33P-γ-ATP (2000–3000 Ci/mmol). Assay conditions vary slightly for each protein kinase, for example, insulin receptor kinase requires 10 mM MnCl2 for activity and Calmodulin-dependent protein kinase requires calmodulin and 2 mM CaCl2. The reaction mixture was dispensed into the wells of a streptavidin coated Flashplate and 1 μL test compound in 100% DMSO was added to a 100 μL reaction volume resulting in a final concentration of 1% DMSO in the reaction. Enzyme was diluted in 50 mM Tris-HCl pH=8.0, 0.1% BSA and added to each well. The reaction was incubated for one hour at 30° C. in the presence of a test compound. After one hour the reaction mix was aspirated from the plate and the plate was washed with PBS containing 100 mM EDTA. The plate was read on a scintillation counter to determine ^33P-γ-ATP incorporated into the immobilized peptide substrate. Test compounds were assayed in duplicate at 8 concentrations (100 μM, 10 μM, 1 μM, 100 nM, 10 nM, 1 nM, 100 pM, 10 pM). A maximum and minimum signal for the assay was determined on each plate. […] Known inhibitor compounds appropriate for the kinase being assayed were also included on each plate.
(§2) The form of VEGF-R (vascular endothelial growth factor receptor-2) used was a fusion protein containing a polyhistidine tag at the N-terminus followed by amino acids 786–1343 of the rat VEGF-R2 kinase domain (GenBank Accession #U93306). The form of CDK1 (cyclin dependent kinase 1) used was isolated from insect cells expressing both the human CDK1 catalytic subunit and its positive regulatory subunit cyclin B (CDK1:cyclin B protein, New England Biolabs, Beverly, Mass., Cat. #6020). The form of CDK4 (cyclin dependent kinase 4) used contains amino acids 769 to 921 of the mouse […] protein found in the GST-retinoblastoma protein construct (Santa Cruz Biotechnology, Santa Cruz, Calif.; Cat. #SC-4112). The form of EGF-R1 (epidermal growth factor receptor 1) used was purified from human A431 cell membranes (Sigma, St. Louis, Mo., Cat.# E3641). […]

[2] = target: T2, CDK1:Cyclin-B (Homo sapiens, UniProt P06493); test: CDK1 Screening Assay; assay type: biochemical
T2 construct: purchased New England Biolabs 6020; host or cells: insect cells
T2 sequence (P06493 whole entry): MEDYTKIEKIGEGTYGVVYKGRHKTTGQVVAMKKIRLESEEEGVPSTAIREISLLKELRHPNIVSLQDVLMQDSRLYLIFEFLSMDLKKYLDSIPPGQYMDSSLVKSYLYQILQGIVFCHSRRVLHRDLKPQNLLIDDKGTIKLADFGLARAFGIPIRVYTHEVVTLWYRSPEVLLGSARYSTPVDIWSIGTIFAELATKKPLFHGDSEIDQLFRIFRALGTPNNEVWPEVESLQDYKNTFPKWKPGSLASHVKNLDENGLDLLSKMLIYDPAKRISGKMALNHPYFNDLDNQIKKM
T2 sequence (P14635 whole entry partner): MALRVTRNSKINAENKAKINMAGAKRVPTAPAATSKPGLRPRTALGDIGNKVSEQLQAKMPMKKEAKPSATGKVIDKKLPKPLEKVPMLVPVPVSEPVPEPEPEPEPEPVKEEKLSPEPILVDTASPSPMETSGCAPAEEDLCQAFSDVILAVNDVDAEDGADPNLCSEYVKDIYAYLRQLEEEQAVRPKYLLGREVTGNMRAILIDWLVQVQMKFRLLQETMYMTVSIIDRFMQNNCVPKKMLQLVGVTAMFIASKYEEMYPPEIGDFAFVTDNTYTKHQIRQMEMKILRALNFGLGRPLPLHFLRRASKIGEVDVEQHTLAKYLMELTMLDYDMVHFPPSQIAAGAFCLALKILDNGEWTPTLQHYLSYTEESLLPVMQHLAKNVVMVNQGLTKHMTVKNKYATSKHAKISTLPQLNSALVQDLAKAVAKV
Method: A kinase reaction mixture was prepared containing 50 mM Tris-HCl pH=8, 10 mM MgCl2, 0.1 mM Na3PO4, 1 mM DTT, 10 μM ATP, 0.025 μM biotinylated histone-H1 peptide substrate (also referred to herein as a CDK-1 peptide substrate, see substrate table) and 0.2 μCuries per well ^33P-γ-ATP (2000–3000 Ci/mmol). 70 μL of the kinase reaction mixture was dispensed into the well of a streptavidin coated FlashPlate™ (Cat. # SMP 103, NEN, Boston, Mass.). Then 1 μL of test compound stock in 100% DMSO was added to the wells resulting in a final concentration of 1% DMSO in the reaction with a 100 μl final reaction volume. Next, CDK1:Cyclin-B protein (New England Biolads, infra) was diluted in 50 mM Tris-HCl pH=8.0, 0.1% BSA at a concentration of 1 ng per μL and 30 μl (30 ng enzyme per test well) was added to each well to initiate the reaction. The reaction was incubated for one hour at 30° C. At the end of the 1-hour incubation, the reaction was terminated by aspirating the reaction mixture from the plate and washing the wells twice with PBS containing 100 mM EDTA. The histone-H1 biotinylated peptide substrate became immobilized on the Flashplate™ (Perkin Elmer, NEN Boston, Mass.) and the incorporation of ^33P-γ-ATP was measured by reading the plate on a scintillation counter. Inhibition of the enzymatic activity of CDK1 was measured by observing a reduced amount of ^33P-γ-ATP incorporated into the immobilized peptide.
as §1, §2

T1 sequence (O08775 786-1343): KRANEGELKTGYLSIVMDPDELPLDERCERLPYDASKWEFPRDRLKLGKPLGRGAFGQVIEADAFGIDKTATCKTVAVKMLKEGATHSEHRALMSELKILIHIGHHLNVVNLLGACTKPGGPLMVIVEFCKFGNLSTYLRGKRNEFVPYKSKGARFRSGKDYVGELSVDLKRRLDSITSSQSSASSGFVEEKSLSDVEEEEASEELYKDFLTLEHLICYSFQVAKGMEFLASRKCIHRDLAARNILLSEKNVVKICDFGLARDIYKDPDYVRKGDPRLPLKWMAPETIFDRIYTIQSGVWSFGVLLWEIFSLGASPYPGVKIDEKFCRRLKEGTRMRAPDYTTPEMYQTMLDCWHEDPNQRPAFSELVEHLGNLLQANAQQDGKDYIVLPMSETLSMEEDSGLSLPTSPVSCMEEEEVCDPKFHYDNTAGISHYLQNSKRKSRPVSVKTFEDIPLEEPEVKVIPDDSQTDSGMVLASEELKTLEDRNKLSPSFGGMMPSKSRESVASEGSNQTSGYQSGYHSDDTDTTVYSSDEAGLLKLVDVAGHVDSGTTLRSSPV

Row | IC50 [1] | IC50 [2] | Structure (SMILES)
1 | 12900 nM | 971 nM | OCCCNc1cncc(-c2ncnc(Nc3cccc(Cl)c3)n2)n1 [Compound 3, 3-((6-(4-((3-chlorophenyl)amino)-1,3,5-triazin-2-yl)pyrazin-2-yl)amino)-1-propanol]
2 | 865 nM | 766 nM | Nc1nc(Nc2cccc(Cl)c2)nc(-c2ccnc(NCCCO)c2)n1 [Compound 4, 3-((4-(4-amino-6-((3-chlorophenyl)amino)-1,3,5-triazin-2-yl)-2-pyridinyl)amino)-1-propanol]
3 | ≥ 10000 nM | 382 nM | OCCCNc1cncc(-c2ncnc(Nc3ccc4c(c3)OCCO4)n2)c1 [Compound 5, 3-((5-(4-((2,3-dihydro-1,4-benzodioxin-6-yl)amino)-1,3,5-triazin-2-yl)-3-pyridinyl)amino)-1-propanol]
4 | 5030 nM | 1240 nM | OCCCNc1cncc(-c2ncnc(Nc3ccc(N4CCOCC4)cc3)n2)c1 [Compound 6, 3-((5-(4-((4-(4-morpholinyl)phenyl)amino)-1,3,5-triazin-2-yl)-3-pyridinyl)amino)-1-propanol]
